Measurements published in US20240156790A1, “COMPOUNDS, COMPOSITIONS, AND METHODS FOR MODULATING FERROPTOSIS AND TREATING EXCITOTOXIC DISORDERS” (THE TRUSTEES OF COLUMBIA UNIVERSITY IN THE CITY OF NEW YORK, priority 2018, published 2024).
“Also recorded” adds a separate entry of the source. Read-outs that look alike come from different tables or passages of the source.

Experiments:
HT-1080 cells = assay: Rescue activity of Fer-1 analogs: inhibition of erastin-, IKE- or RSL3-induced death (Alamar Blue viability); format: cell-based; details: Homo sapiens
Method: HT-1080 cells are cultured in DMEM containing 10% fetal bovine serum, 1% supplemented non-essential amino acids and 1% pen/strep mixture (Gibco) and maintained in a humidified environment at 37° C. with 5% CO2 in a tissue culture incubator. 1,000 HT-1080 cells are seeded per well in duplicate 384-well plates (Corning) using a BioMek FX liquid handling robot (Beckman Coulter). The next day, the medium is replaced with 36 μL of medium containing 10 μM erastin with 4 μL of medium containing a dilution series (previously prepared) of DMSO, Fer-1 (positive control) or Fer-1 analogs. […] Cells are incubated a further 6 hours and then the Alamar Blue fluorescence intensity recorded using a Victor 3 platereader (PerkinElmer)(ex/em 530/590). All experiments are performed at least twice and the background (no cells)-subtracted Alamar Blue values for each combination are averaged between replicates. The same procedure was repeated by replacing erastin (10 μM) with IKE (3 μM) or RSL3 (0.2 μM).

[1] = test system: N27 rat dopaminergic cells; assay: Suppression of ferroptosis induced by RSL3 in N27 cells (CellTiter-Glo viability); format: cell-based; details: for ability to suppress ferroptosis, in words: RSL3 20 nM, 24 hours of incubation; for IC50: Rattus norvegicus, read-out: IC50
[2] = HT-1080, ^a 50% viability, HT-1080 cells treated with 10 μM erastin
[3] = HT-1080, ^b 50% viability, HT-1080 treated with 3 μM IKE
[4] = HT-1080, ^c 50% viability, HT-1080 treated with 0.2 μM RSL3
[5] = N27, 24 h, Table 3, ^d 24 hr treatment, 1,000 cells/well seeded
[6] = N27, 24 h, Table 13, 20 nM RSL3, treated for 24 hours^d
[7] = N27, 48 h, Table 13, 20 nM RSL3, treated for 48 hours^e

| SMILES | EC50 (HT-1080 cells; [2]) | EC50 (HT-1080 cells; [3]) | EC50 (HT-1080 cells; [4]) | IC50 [1, 6] | further results |
| --- | --- | --- | --- | --- | --- |
| Cc1noc(-c2ccc(NC3CCCCC3)c(NC(C)C)c2)n1 [TH-1-45-2, N1-cyclohexyl-N2-isopropyl-4-(3-methyl-1,2,4-oxadiazol-5-yl)benzene-1,2-diamine] | 22.3 nM | 16.2 nM | 4.2 nM |  |  |
| Cc1noc(-c2cnc(NC3CCCC3)c([N+](=O)[O-])c2)n1 [TH-4-58-2, N-cyclopentyl-5-(3-methyl-1,2,4-oxadiazol-5-yl)-3-nitropyridin-2-amine] |  |  |  |  | ability to suppress ferroptosis, in words [1]: unable to suppress ferroptosis |
| Cc1noc(-c2cnc(NC3CCCC3)c(NC3CCCCC3)c2)n1 [TH-4-66, N^3-cyclohexyl-N^2-cyclopentyl-5-(3-methyl-1,2,4-oxadiazol-5-yl)pyridine-2,3-diamine] |  |  |  | 3.1 nM | potency relative to fer-1, in words ([1]; 20 nM RSL3): more potent than fer-1; IC50 [1, 5]: 3.1 nM |
| Cc1noc(-c2cnc(NC3CCCC3)c(NC3CCC3)c2)n1 [TH-4-62, N^3-cyclobutyl-N^2-cyclopentyl-5-(3-methyl-1,2,4-oxadiazol-5-yl)pyridine-2,3-diamine] |  |  |  | 6.9 nM | IC50 [1, 5]: 6.9 nM |
| CCOC(=O)c1cnc(NC2CCCCC2)c(N)c1 [YZ1108, ethyl 5-amino-6-(cyclohexylamino)nicotinate] | 315 nM | 639 nM | 1040 nM |  |  |
| CC(C)(C)OC(=O)c1cnc(NC23CC4CC(CC(C4)C2)C3)c(NC2CCCCC2)c1 [YZ1118, tert-butyl 6-(((3s,5s,7s)-adamantan-1-yl)amino)-5-(cyclohexylamino)nicotinate] |  | 40.1 nM | 37.3 nM |  |  |
| Cc1noc(-c2ccc(NC3CCCCC3)c(NCc3ccccc3)c2)n1 [TH-1-53-2] | 44.5 nM | 40.2 nM | 9.4 nM |  |  |
| CCOC(=O)c1cnc(NC2CCCCC2)c(NCc2ccccc2)c1 [YZ1109, ethyl 5-(benzylamino)-6-(cyclohexylamino)nicotinate] | 317 nM | 166 nM | 115 nM |  |  |
| Cc1noc(-c2cnc(NC3CCCCC3)c([N+](=O)[O-])c2)n1 [TH-4-50-2, N-cyclohexyl-5-(3-methyl-1,2,4-oxadiazol-5-yl)-3-nitropyridin-2-amine] |  |  |  |  | ability to suppress ferroptosis, in words [1]: unable to suppress ferroptosis |
| Cc1noc(-c2cc(NC3CCCC3)cnc2NC2CCCCC2)n1 [TH-4-53-2, N^2-cyclohexyl-N^5-cyclopentyl-3-(3-methyl-1,2,4-oxadiazol-5-yl)pyridine-2,5-diamine] |  |  |  | 1.8 nM | potency relative to fer-1, in words ([1]; 20 nM RSL3): more potent than fer-1; also recorded: the most potent of the analogs tested |
| Cc1noc(-c2ccc(NC3CCCCC3)c(NC3CCCC3)c2)n1 [TH-1-45-1, N1-cyclohexyl-N2-cyclopentyl-4-(3-methyl-1,2,4-oxadiazol-5-yl)benzene-1,2-diamine] | 33.8 nM | 17.3 nM | 5.1 nM |  |  |
| CCC(CC)Nc1cnc(NC2CCCCC2)c(-c2nc(C)no2)c1 [TH-4-53-1, N^2-cyclohexyl-3-(3-methyl-1,2,4-oxadiazol-5-yl)-N^5-(pentan-3-yl)pyridine-2,5-diamine] |  |  |  | 32.7 nM |  |
| COc1ccc(N)c(NC(C)C)n1 [TH-3-83-2, N2-isopropyl-6-methoxypyridine-2,3-diamine] |  |  |  | 19.5 nM | IC50 [1, 7]: 33.6 nM |
| CCN(CC)c1ncc(-c2nc(C)no2)cc1[N+](=O)[O-] [TH-4-46-2, N,N-diethyl-5-(3-methyl-1,2,4-oxadiazol-5-yl)-3-nitropyridin-2-amine] |  |  |  |  | ability to suppress ferroptosis, in words [1]: unable to suppress ferroptosis |
| Cc1noc(-c2cnc(NC3CCCCC3)c(NC3CCC3)c2)n1 [TH-4-55-1, N^3-cyclobutyl-N^2-cyclohexyl-5-(3-methyl-1,2,4-oxadiazol-5-yl)pyridine-2,3-diamine] |  |  |  | 2.2 nM | potency relative to fer-1, in words ([1]; 20 nM RSL3): more potent than fer-1; IC50 [1, 5]: 2.2 nM |
| COc1ccc(NC2CCCCC2)c(NC(C)C)n1 [TH-3-95-1-r1, N3-cyclohexyl-N2-isopropyl-6-methoxypyridine-2,3-diamine] |  |  |  | 30.5 nM | IC50 [1, 7]: 22.4 nM |
| CC(C)(C)OC(=O)c1cnc(NC2CCCCC2)c(NC2CCCCC2)c1 [CFI-101] | 354 nM | 171 nM | 163 nM |  |  |
| C=C/C(=C\C(F)=C\COC(C)(C)C)NC12CC3CC(CC(C3)C1)C2 [CFI-A78] |  | 26 nM | 18 nM |  |  |
| Cc1noc(-c2ccc(NC3CCCCC3)c(NCc3ccncc3)c2)n1 [TH-1-53-3, N1-cyclohexyl-4-(3-methyl-1,2,4-oxadiazol-5-yl)-N2-(pyridin-4-ylmethyl)benzene-1,2-diamine] | 63.8 nM | 63 nM | 31.5 nM |  |  |
| CCC(CC)Nc1cc(-c2nc(C)no2)ccc1NC1CCCCC1 [TH-1-45-3, N1-cyclohexyl-4-(3-methyl-1,2,4-oxadiazol-5-yl)-N2-(pentan-3-yl)benzene-1,2-diamine] | 37.8 nM | 26.9 nM | 6.6 nM |  |  |
| COc1ccc(NC(C)C)c(NC(C)C)n1 [TH-3-95-2-R1, N2,N3-diisopropyl-6-methoxypyridine-2,3-diamine] |  |  |  | 35.7 nM | IC50 [1, 7]: 0.22 nM |
| CCC(CC)Nc1cc(-c2nc(C)no2)cnc1NC1CCCC1 [TH-4-68, N^2-cyclopentyl-5-(3-methyl-1,2,4-oxadiazol-5-yl)-N^3-(pentan-3-yl)pyridine-2,3-diamine] |  |  |  | 4 nM | IC50 [1, 5]: 4 nM |
| Cc1noc(-c2cc(N(C(C)C)C(C)C)cnc2NC2CCCCC2)n1 [TH-3-86-R2, N^2-cyclohexyl-N^5,N^5-diisopropyl-3-(3-methyl-1,2,4-oxadiazol-5-yl)pyridine-2,5-diamine] |  |  |  |  | IC50 [1, 7]: 1040 nM; IC50 ([1]; N27, text, 20 nM RSL3): 1000 nM |
| Cc1noc(-c2cnc(NC3CCCCC3)c(NC3CCCC3)c2)n1 [TH-4-16-1, N^2-cyclohexyl-N^3-cyclopentyl-5-(3-methyl-1,2,4-oxadiazol-5-yl)pyridine-2,3-diamine] |  |  |  | 5.1 nM | IC50 [1, 5]: 5.1 nM; IC50 ([1]; N27, 48 h, Table 3, ^e 48 hr treatment, 1,000 cells/well seeded): 8.2 nM; IC50 [1, 7]: 8.2 nM |
| CC(C)(C)OC(=O)c1cnc(NC2CCCCC2)c(N)c1 [YZ1113, tert-butyl 5-amino-6-(cyclohexylamino)nicotinate] | 338 nM | 312 nM | 156 nM |  |  |
| CC(C)(C)OC(=O)c1cnc(NC23CC4CC(CC(C4)C2)C3)c(N)c1 [YZ1117, tert-butyl 6-(((3s,5s,7s)-adamantan-1-yl)amino)-5-aminonicotinate] | 85 nM | 68.4 nM | 39.1 nM |  |  |
